Experimental data from patent US20080131404A1, “Hepatocytes” (priority 2004, published 2008).

Legend:
[1] = tested on: clone 20 hepatocytes (c-myc-ER infected human foetal hepatocytes); assay: Telomerase assay (Telo TAGGG telomerase PCR ELISA); assay type: cell-based; settings: hepatocytes cultured in 0.5-10 μM 4-OHT
Protocol: Cells from clone 20, p2 were cultured in T25 flasks for 1 week in media with 0, 100 nM, 1 μM and 10 μM 4-OHT for 1 week. The cells had been in culture for 2 months. Uninfected hepatocytes from the same liver were also used for the assay. These cells had been in culture for 3 weeks. The assay was performed according to the instructions for the Telo TAGGG telomerase PCR ELISAPWs (Roche). The plate reader GENios (Tecan) was used to analyse the results. Some of the fluorescence values were too high for the plate readers' spectra so a change to the protocol was done and the fluorescence was measured from only ⅓ of the final volume.

LIV0A07 [2] = assay: Cyquant cell proliferation assay; assay type: cell-based, human
Protocol: Growth rate was assessed using the Cyquant cell proliferation assay (Molecular Probes, Paisley, UK). Cells were grown in multiwell plates or 25 cm^2 flasks and experiments were performed according to the manufacturers instructions.
Growth rate was assessed using the Cyquant cell proliferation assay to compare growth of LIV0A07 over 5 days in […] 4-OHT.

LIV0A07 [3] = assay: TaqMan analysis of CYP3A4/CYP3A7 mRNA in LIV0A07; assay type: cell-based, human
Protocol: (§1) A standard TaqMan protocol was following using a 96 well optical reaction plate (Applied Biosystems, CA, USA). All probes and primers were supplied by MWG-Biotech, Ebersberg, Germany (see table 3). All probes were labelled with 3′TAMRA and 5′FAM. The reaction plate was sealed with optical adhesive cover (Applied Biosystems, CA, USA) and centrifuged for 1 min at 500 g before loading onto the TaqMan machine (ABI prism 7000 sequence detection system) and results analysed with ABI prism 7000 SDS software.

HuH7 cells = assay: TaqMan analysis of CYP3A4 mRNA in HuH7; assay type: cell-based, human; settings: HuH7 samples
Protocol: as §1

LIV0A07 [4] = assay: Immunocytochemistry for hepatocyte markers albumin and CK-18; assay type: cell-based, human; settings: grown in the absence of 4-OHT for 48 h
Protocol: Immunocytochemistry was used for early assessment of the cell line. […] The human hepatoma cell line HuH7 was used as a positive control for liver markers, while a myc-immortalised neural stem cell line (197VM) cells were used as a negative control.
All staining was performed in multiwell plates using the following method. Medium was aspirated and cells washed once with PBS prior to fixing using 4% paraformaldehyde for 15 min at room temperature. Cells were then washed three times in PBS, before being permeabilised for 15 min using 0.1% triton x-100 in PBS. Cells were washed with PBS once more then blocked for 1 h in 10% normal goat serum (NGS) (Vector Laboratories, CA, USA) in PBS. Primary antibodies were applied in 1% NGS/PBS for 1 h at room temperature. Cells were washed three times in PBS then exposed to the secondary antibody in 1% NGS/PBS for 1 h at room temperature. Cells were washed three times in PBS and Hoechst, a dye that stains DNA, was added for 2 min at room temperature (1:25,000 in PBS). Cells were washed a further three times in PBS and left in the final wash. Analysis was performed using a fluorescence microscope (Leica DMRA). The secondary antibody excited at a wavelength of ˜488 nm and gave emission at ˜525 nm (green emission) while Hoechst excited at ˜350 nm and emitted at ˜425 nm (blue emission).

human foetal liver cells = assay: Neomycin titre and selection; assay type: cell-based; settings: 250 μg/ml neomycin, 2 week selection
Protocol: To determine what concentration of neomycin to use on the liver cells exposed to the virus, in order to eliminate all or the majority of non-infected cells, but not the infected cells, a titre of neomycin was set up. Human foetal liver cells from a dissociated liver that had never been exposed to the immortalising virus were plated in 6-well plates and exposed to neomycin concentrations ranging from 0-900 μg/ml for 12 days in triplicate. 100, 500 and 2000 cells/well were plate and the cells were left for 2 days before the neomycin was added. The growth and proliferation of the cells were studied visually with the TMS-F microscope (Nikon). Based on the result from the neomycin titre a concentration of 250 μg/ml neomycin was used for 2 weeks on the liver cells exposed to the immortalising virus.

telomerase expression [1]	CYP3A4 mRNA level, differentiated vs undifferentiated cultures (LIV0A07 [3]; grown in the absence of 4-OHT for 72 h compared to cultures with 4-OHT)	effect of 4-OHT on CYP3A4 mRNA expression (HuH7 cells)	Compound	proliferation (LIV0A07 [2]; 0.1 mM 4-OHT, 5 days)	toxicity to the cells (LIV0A07 [2]; 1.0 mM 4-OHT, initial slow proliferation after seeding)	proliferation (LIV0A07 [2]; 0.5 and 1.0 mM 4-OHT, 5 days)	optimum concentration for 4-OHT dependent growth (LIV0A07 [2]; in the medium, 5 days)	CYP3A7 mRNA level on differentiation (LIV0A07 [3]; absence of 4-OHT)	albumin and CK-18 staining, differentiated cultures (LIV0A07 [4])	survival of noninfected cells during selection (human foetal liver cells)
up regulates telomerase expression	approximately 15 fold	no effect	4-hydroxytamoxifen [4-OHT]	Little proliferation	may be slightly toxic	expanded to a greater extent	0.5 to 1.0 mM	did not display the same differentiation induced increase	slightly stronger	
			NC[C@@H]1O[C@H](O[C@H]2[C@@H](O)[C@H](O[C@@H]3[C@@H](O)[C@H](N)C[C@H](N)[C@H]3O[C@H]3O[C@H](CN)[C@@H](O)[C@H](O)[C@H]3N)O[C@@H]2CO)[C@H](N)[C@@H](O)[C@@H]1O [neomycin, Neomycin]							majority of the noninfected cells died
